Paper PMC7101356, “Cross-site and cross-platform variability of automated patch clamp assessments of drug effects on human cardiac currents in recombinant cells” (Scientific Reports, 2020)

Tests used:
hCav1.2 = hCav1.2 (Homo sapiens, UniProt Q13936); assay: Automated patch clamp, hCav1.2 current block; conditions: for IC50: log IC50, half-maximal inhibitory concentration
[1] = based on CiPA evaluations; cited from earlier work
peak hNav1.5 = biological target: T1, peak hNav1.5 (Homo sapiens, UniProt Q14524); assay: Automated patch clamp, peak hNav1.5 current block; type: cell-based; conditions: for nH (=constant), peak hNav1.5 Na+ current inhibition: Hill slope held constant in fit
T1 construct: expressed in transfected cells; host or cells: HEK293 or CHO, depending on site

late hNav1.5 = biological target: T2, late hNav1.5 (Homo sapiens, UniProt Q14524); assay: Automated patch clamp, late hNav1.5 current block (ATX-II activated); type: cell-based; conditions: for Late hNav1.5 Na+ current inhibition, Mean: 1.00E-05 mol/L
T2 construct: expressed in transfected cells; host or cells: HEK293 or CHO, depending on site

[2] = site s02_p2, corrected for rundown

Chain of hCav1.2 (Q13936 whole entry): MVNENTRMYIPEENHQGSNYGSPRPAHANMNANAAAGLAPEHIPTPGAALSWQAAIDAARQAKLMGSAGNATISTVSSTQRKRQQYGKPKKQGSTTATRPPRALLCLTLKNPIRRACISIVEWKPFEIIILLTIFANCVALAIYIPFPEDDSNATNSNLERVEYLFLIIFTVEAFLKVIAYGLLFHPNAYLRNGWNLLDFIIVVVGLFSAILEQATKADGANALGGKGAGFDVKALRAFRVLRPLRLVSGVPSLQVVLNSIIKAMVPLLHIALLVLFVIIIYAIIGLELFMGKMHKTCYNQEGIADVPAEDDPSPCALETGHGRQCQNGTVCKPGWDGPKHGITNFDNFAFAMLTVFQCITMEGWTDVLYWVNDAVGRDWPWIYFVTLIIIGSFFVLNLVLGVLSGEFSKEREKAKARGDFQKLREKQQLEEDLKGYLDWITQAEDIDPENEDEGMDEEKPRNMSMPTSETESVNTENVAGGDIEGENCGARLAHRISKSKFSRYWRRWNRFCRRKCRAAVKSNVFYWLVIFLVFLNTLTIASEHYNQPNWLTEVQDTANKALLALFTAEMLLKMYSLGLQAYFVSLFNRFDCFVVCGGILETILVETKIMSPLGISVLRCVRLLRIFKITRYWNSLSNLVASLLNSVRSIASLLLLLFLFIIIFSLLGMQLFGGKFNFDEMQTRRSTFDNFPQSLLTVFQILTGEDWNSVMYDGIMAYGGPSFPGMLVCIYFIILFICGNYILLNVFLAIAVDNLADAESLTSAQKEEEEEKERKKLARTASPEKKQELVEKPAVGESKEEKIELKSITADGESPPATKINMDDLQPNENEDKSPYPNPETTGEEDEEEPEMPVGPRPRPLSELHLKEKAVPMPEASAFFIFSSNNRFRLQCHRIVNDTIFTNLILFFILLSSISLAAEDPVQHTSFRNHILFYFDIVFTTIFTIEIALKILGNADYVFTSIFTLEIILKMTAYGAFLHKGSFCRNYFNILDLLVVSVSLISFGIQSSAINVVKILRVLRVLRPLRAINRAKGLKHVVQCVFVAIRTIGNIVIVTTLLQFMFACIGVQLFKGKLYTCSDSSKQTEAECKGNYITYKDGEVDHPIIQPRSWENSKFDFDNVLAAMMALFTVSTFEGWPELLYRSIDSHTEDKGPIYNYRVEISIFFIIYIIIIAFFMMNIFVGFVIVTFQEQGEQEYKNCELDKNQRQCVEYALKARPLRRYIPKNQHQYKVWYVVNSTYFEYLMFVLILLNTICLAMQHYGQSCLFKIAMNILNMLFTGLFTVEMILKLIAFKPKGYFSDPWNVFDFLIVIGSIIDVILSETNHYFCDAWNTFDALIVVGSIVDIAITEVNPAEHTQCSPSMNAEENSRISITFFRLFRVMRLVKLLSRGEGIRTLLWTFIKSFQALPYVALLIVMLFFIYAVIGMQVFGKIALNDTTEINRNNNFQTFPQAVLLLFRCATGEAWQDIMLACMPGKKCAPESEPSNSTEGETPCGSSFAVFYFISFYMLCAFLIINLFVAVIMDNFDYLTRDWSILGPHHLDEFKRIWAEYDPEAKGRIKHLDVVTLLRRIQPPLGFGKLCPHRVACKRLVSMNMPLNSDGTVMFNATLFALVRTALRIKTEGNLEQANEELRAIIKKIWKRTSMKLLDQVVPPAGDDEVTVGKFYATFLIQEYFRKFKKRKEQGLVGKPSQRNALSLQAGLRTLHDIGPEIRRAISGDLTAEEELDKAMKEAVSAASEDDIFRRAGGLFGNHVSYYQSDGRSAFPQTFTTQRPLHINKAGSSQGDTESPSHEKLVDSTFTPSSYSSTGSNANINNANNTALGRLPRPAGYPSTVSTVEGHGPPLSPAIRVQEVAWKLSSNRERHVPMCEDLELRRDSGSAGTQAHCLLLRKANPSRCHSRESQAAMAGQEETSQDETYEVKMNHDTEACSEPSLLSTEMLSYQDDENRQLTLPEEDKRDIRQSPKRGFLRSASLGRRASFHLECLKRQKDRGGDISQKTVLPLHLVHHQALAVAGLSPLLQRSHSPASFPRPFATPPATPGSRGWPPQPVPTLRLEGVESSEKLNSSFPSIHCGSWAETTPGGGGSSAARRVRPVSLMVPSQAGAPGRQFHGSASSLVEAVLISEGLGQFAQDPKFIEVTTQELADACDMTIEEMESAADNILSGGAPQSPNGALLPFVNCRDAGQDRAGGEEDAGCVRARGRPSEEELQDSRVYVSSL
Chain of hCav1.2 (Q08289 whole entry partner): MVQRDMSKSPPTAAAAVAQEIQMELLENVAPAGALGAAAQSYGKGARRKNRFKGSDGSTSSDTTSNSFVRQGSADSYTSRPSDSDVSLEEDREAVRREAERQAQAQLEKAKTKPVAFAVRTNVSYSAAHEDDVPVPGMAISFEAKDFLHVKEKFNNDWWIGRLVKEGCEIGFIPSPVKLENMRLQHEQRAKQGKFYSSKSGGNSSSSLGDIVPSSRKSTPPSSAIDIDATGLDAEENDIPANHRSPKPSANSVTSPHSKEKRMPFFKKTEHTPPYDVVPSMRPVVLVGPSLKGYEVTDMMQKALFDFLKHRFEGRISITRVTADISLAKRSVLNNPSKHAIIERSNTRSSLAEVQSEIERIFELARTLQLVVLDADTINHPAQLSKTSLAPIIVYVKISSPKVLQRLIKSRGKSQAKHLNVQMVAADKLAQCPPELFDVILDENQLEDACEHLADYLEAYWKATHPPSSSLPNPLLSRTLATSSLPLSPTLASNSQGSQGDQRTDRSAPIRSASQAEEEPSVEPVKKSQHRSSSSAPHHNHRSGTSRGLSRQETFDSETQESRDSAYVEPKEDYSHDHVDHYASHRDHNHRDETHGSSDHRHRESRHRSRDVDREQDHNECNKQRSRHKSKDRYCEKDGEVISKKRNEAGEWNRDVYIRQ
Chain of hCav1.2 (P54289 25-956 partner limits assumed): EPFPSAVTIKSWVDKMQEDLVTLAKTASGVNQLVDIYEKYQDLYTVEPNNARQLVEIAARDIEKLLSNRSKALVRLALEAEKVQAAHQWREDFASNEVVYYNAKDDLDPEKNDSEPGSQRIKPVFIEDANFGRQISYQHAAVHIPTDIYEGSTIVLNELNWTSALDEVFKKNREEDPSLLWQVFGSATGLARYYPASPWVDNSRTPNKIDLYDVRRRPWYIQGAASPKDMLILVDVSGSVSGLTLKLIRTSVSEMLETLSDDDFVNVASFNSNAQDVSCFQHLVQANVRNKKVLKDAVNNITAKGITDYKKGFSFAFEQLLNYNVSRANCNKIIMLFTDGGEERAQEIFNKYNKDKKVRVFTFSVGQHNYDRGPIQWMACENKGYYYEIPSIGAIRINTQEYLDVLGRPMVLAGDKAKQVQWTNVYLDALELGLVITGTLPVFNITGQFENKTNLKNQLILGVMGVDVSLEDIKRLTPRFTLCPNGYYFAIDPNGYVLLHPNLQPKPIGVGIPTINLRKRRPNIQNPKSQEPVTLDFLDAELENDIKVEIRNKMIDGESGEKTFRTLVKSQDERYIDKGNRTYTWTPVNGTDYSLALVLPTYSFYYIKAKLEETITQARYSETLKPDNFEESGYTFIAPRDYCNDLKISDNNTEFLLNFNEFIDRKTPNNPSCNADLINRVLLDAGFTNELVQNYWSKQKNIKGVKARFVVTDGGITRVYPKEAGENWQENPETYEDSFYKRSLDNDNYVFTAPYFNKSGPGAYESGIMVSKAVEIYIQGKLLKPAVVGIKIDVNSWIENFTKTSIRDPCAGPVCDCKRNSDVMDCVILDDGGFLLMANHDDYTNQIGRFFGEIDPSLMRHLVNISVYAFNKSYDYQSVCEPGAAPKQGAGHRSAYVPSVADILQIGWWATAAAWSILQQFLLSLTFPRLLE
Chain of hCav1.2 (P54289 957-1103 partner limits assumed): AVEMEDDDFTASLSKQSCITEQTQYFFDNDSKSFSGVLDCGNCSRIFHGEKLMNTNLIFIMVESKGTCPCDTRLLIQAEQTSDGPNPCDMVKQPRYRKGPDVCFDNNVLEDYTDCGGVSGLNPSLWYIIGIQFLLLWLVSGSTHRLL

## COc1ccccc1OCC(O)CN1CCN(CC(=O)Nc2c(C)cccc2C)CC1 (stereo not shown) [ran, ranolazine]
hCav1.2; [2]
  IC50: 501 µM
  nH, Hill slope: 0.74
hCav1.2; site s06_p4
  IC50: 186 µM
  nH, Hill slope: 2.00
hCav1.2; site s11_p1
  IC50: 1350 µM
  nH, Hill slope: 0.32
hCav1.2; site s14_p1
  IC50: 245 µM
  nH, Hill slope: 1.42
hCav1.2; site s16_p3
  IC50: 3090 µM
  nH, Hill slope: 0.24
hCav1.2; site s18_p1
  IC50: 148 µM
  nH, Hill slope: 2.00
hCav1.2; site s01_p1, 1.00E-04 mol/L
  Peak hCav1.2 Ca2+ current inhibition, Mean: 9.0%
hCav1.2; site s01_p1, 3.00E-06 mol/L
  Peak hCav1.2 Ca2+ current inhibition, Mean: -2.7%
hCav1.2; site s02_p2, corrected for rundown, 1.00E-04 mol/L
  Peak hCav1.2 Ca2+ current inhibition, Mean: 22.9%
hCav1.2; site s02_p2, corrected for rundown, 3.00E-06 mol/L
  Peak hCav1.2 Ca2+ current inhibition, Mean: -1.8%
hCav1.2; site s06_p4, 1.00E-04 mol/L
  Peak hCav1.2 Ca2+ current inhibition, Mean: 23.0%
hCav1.2; site s06_p4, 3.00E-06 mol/L
  Peak hCav1.2 Ca2+ current inhibition, Mean: 12.9%
hCav1.2; site s11_p1, 1.00E-04 mol/L
  Peak hCav1.2 Ca2+ current inhibition, Mean: 33.0%
hCav1.2; site s11_p1, 3.00E-06 mol/L
  Peak hCav1.2 Ca2+ current inhibition, Mean: 14.1%
hCav1.2; site s14_p1, 1.00E-04 mol/L
  Peak hCav1.2 Ca2+ current inhibition, Mean: 21.7%
hCav1.2; site s14_p1, 3.00E-06 mol/L
  Peak hCav1.2 Ca2+ current inhibition, Mean: -1.7%
hCav1.2; site s16_p3, 1.00E-04 mol/L
  Peak hCav1.2 Ca2+ current inhibition, Mean: 31.8%
hCav1.2; site s16_p3, 3.00E-06 mol/L
  Peak hCav1.2 Ca2+ current inhibition, Mean: 16.5%
hCav1.2; site s18_p1, 1.00E-04 mol/L
  Peak hCav1.2 Ca2+ current inhibition, Mean: 36.1%
hCav1.2; site s18_p1, 3.00E-06 mol/L
  Peak hCav1.2 Ca2+ current inhibition, Mean: -14.2%
[1]
  TdP Risk Category: Low

## CN(C)CCCN1c2ccccc2Sc2ccc(Cl)cc21 [cpz, chlorpromazine]
[1]
  TdP Risk Category: Intermediate

## CC(C)(C)c1ccc(C(O)CCCN2CCC(C(O)(c3ccccc3)c3ccccc3)CC2)cc1 (stereo not shown) [ter, terfenadine]
hCav1.2; site s01_p1
  nH, Hill slope: 1.62
hCav1.2; site s01_p1, 3.00E-07 mol/L
  Peak hCav1.2 Ca2+ current inhibition, Mean: 35.6%
hCav1.2; [2]
  nH, Hill slope: 1.40
hCav1.2; site s02_p2, corrected for rundown, 3.00E-07 mol/L
  Peak hCav1.2 Ca2+ current inhibition, Mean: 74.7%
hCav1.2; site s04_p3
  nH, Hill slope: 0.41
hCav1.2; site s04_p3, 3.00E-07 mol/L
  Peak hCav1.2 Ca2+ current inhibition, Mean: 32.9%
hCav1.2; site s16_p3
  nH, Hill slope: 0.65
hCav1.2; site s16_p3, 3.00E-07 mol/L
  Peak hCav1.2 Ca2+ current inhibition, Mean: 52.1%
hCav1.2; site s18_p1
  nH, Hill slope: 2.00
hCav1.2; site s18_p1, 3.00E-07 mol/L
  Peak hCav1.2 Ca2+ current inhibition, Mean: 56.4%

## CN(CCOc1ccc(NS(C)(=O)=O)cc1)CCc1ccc(NS(C)(=O)=O)cc1 [dof, dofetilide]
[1]
  TdP Risk Category: High

## C=C[C@H]1C[N@@]2CC[C@H]1C[C@@H]2[C@@H](O)c1ccnc2ccc(OC)cc12 [qui, quinidine]
Peak hNav1.5; site_platform s01_p1, 1.00E-05 mol/L
  Peak hNav1.5 Na+ current inhibition, Mean: 72.9%
Peak hNav1.5; site_platform s01_p1, 1.00E-07 mol/L
  Peak hNav1.5 Na+ current inhibition, Mean: 51.7%
Peak hNav1.5; site_platform s01_p1
  nH (=constant), peak hNav1.5 Na+ current inhibition: 1
Peak hNav1.5; site_platform s02_p2
  nH (=constant), peak hNav1.5 Na+ current inhibition: 1
Peak hNav1.5; site_platform s04_p3
  nH (=constant), peak hNav1.5 Na+ current inhibition: 1
Peak hNav1.5; site_platform s06_p4
  nH (=constant), peak hNav1.5 Na+ current inhibition: 1
Peak hNav1.5; site_platform s07_p6
  nH (=constant), peak hNav1.5 Na+ current inhibition: 1
Peak hNav1.5; site_platform s10_p3
  nH, Hill slope, peak hNav1.5 inhibition: 1
Peak hNav1.5; site_platform s11_p1
  nH, Hill slope, peak hNav1.5 inhibition: 1
Peak hNav1.5; site_platform s11_p1, 1.00E-05 mol/L
  Peak hNav1.5 Na+ current inhibition, Mean: 30.0%
Peak hNav1.5; site_platform s12_p2
  nH, Hill slope, peak hNav1.5 inhibition: 1
Peak hNav1.5; site_platform s13_p2
  nH, Hill slope, peak hNav1.5 inhibition: 1
Peak hNav1.5; site_platform s14_p1
  nH, Hill slope, peak hNav1.5 inhibition: 1
Peak hNav1.5; site_platform s15_p1
  nH, Hill slope, peak hNav1.5 inhibition: 1
Peak hNav1.5; site_platform s15_p1, 1.00E-05 mol/L
  Peak hNav1.5 Na+ current inhibition, Mean: 52.7%
Peak hNav1.5; site_platform s16_p3
  nH, Hill slope, peak hNav1.5 inhibition: 1
Peak hNav1.5; site_platform s17_p1
  nH, Hill slope, peak hNav1.5 inhibition: 1
Peak hNav1.5; site_platform s17_p1, 1.00E-05 mol/L
  Peak hNav1.5 Na+ current inhibition, Mean: 54.0%
Peak hNav1.5; site_platform s18_p1
  nH, Hill slope, peak hNav1.5 inhibition: 1
Peak hNav1.5; site_platform s19_p3
  nH, Hill slope, peak hNav1.5 inhibition: 1
Late hNav1.5; site_platform s06_p4
  nH, Hill slope, late hNav1.5 inhibition: 0.91
  Late hNav1.5 Na+ current inhibition, Mean: 78.1%
Late hNav1.5; site_platform s07_p6
  nH, Hill slope, late hNav1.5 inhibition: 0.74
  Late hNav1.5 Na+ current inhibition, Mean: 46.2%
Late hNav1.5; site_platform s13_p2
  nH, Hill slope, late hNav1.5 inhibition: 0.63
Late hNav1.5; site_platform s14_p1
  nH, Hill slope, late hNav1.5 inhibition: 2.00
  Late hNav1.5 Na+ current inhibition, Mean: 68.8%
[1]
  TdP Risk Category: High
